According to PubChem BioAssay (NCI):
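A five-concentration, 48-hour dose response in 96-well plates underlies each endpoint, interpolated linearly between surrounding concentrations. GI50: concentration for 50% inhibition of growth. TGI: concentration producing complete growth inhibition.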

Experiments:
Assay in all cases: NCI anticancer screen, dose series, 48 h
A498 renal = system: A498 renal
CAKI-1 renal = system: CAKI-1 renal
IGROV1 ovarian = system: IGROV1 ovarian
K-562 leukemia = system: K-562 leukemia
SNB-19 CNS = system: SNB-19 CNS
BT-549 breast = system: BT-549 breast
MDA-MB-435 = system: MDA-MB-435
UACC-62 melanoma = system: UACC-62 melanoma
MOLT-4 leukemia = system: MOLT-4 leukemia
SK-MEL-5 melanoma = system: SK-MEL-5 melanoma

SMILES | GI50 (A498 renal) | TGI (A498 renal) | GI50 (CAKI-1 renal) | TGI (CAKI-1 renal) | GI50 (IGROV1 ovarian) | TGI (IGROV1 ovarian) | GI50 (K-562 leukemia) | TGI (K-562 leukemia) | GI50 (SNB-19 CNS) | TGI (SNB-19 CNS) | GI50 (BT-549 breast) | TGI (BT-549 breast) | GI50 (MDA-MB-435) | TGI (MDA-MB-435) | GI50 (UACC-62 melanoma) | TGI (UACC-62 melanoma) | TGI (MOLT-4 leukemia) | TGI (SK-MEL-5 melanoma)
CN(C)c1ccc(/C=C/c2sc3ccc4ccccc4c3[n+]2C)cc1 | 0.539 µM | 2.85 µM | 0.211 µM | 0.627 µM | 0.368 µM | 1.66 µM | 0.199 µM | > 100 µM | 0.521 µM | > 100 µM | – | – | – | – | – | – | – | –
CN1CCN(CC(=O)Nc2ccc3ncnc(Nc4ccc(Oc5cccc(C(F)(F)F)c5)c(Cl)c4)c3c2)CC1 | 1.32 µM | 2.66 µM | 1.24 µM | 2.49 µM | – | – | – | – | – | – | 1.47 µM | 2.85 µM | 1.58 µM | 2.97 µM | 1.83 µM | 3.4 µM | – | –
Cn1c(C(C#N)c2cc(Cl)ncn2)nc2ccccc21 (configuration not stated) | – | > 100 µM | – | > 100 µM | – | > 100 µM | – | – | – | > 100 µM | – | > 100 µM | – | > 100 µM | – | – | > 100 µM | > 100 µM
O=c1ccc2ccccc2o1 | – | > 100 µM | – | – | – | > 100 µM | – | > 100 µM | – | > 100 µM | – | – | – | – | – | > 100 µM | > 100 µM | –
CCOC(OCC)C(CC)[Se]c1ccccc1[N+](=O)[O-] (configuration not stated) | – | 11.6 µM | – | 88.8 µM | – | > 100 µM | – | > 38.5 µM | – | > 94.5 µM | – | – | – | – | – | > 56.2 µM | > 86.7 µM | 30.9 µM
COC1(OC)N=C(N)C2(C#N)C(C)CC(=O)N(N(C)C)C12C#N (configuration not stated) | – | > 100 µM | – | > 100 µM | – | > 100 µM | – | > 100 µM | – | > 100 µM | – | – | – | > 100 µM | – | > 100 µM | > 100 µM | > 100 µM
NC(=O)N/N=C(\Cc1nc2ccc(C(=O)c3ccccc3)cc2[nH]c1=O)C(=O)Nc1ccc(Br)cc1 | – | > 100 µM | – | > 100 µM | – | > 100 µM | – | > 100 µM | – | > 100 µM | – | – | – | – | – | > 100 µM | > 100 µM | > 100 µM
COc1cc(/C=C2\N=C(c3ccccc3)N(C3Nc4cc5c(cc4S3)NC(N3C(=O)/C(=C/c4cc(OC)c(OC)c(OC)c4)N=C3c3ccccc3)S5)C2=O)cc(OC)c1OC (configuration not stated) | – | > 100 µM | – | > 100 µM | – | > 100 µM | – | > 100 µM | – | – | – | > 100 µM | – | > 100 µM | – | – | > 100 µM | > 100 µM
Nc1nc2c(ncn2CCOC(c2ccccc2)P(=O)(O)O)c(=O)[nH]1 (configuration not stated) | – | > 100 µM | – | > 100 µM | – | > 100 µM | – | – | – | > 100 µM | – | – | – | – | – | > 100 µM | – | > 100 µM
COc1nn(Cc2ccccc2F)c2ccc([N+](=O)[O-])cc12 | – | > 92.3 µM | – | > 100 µM | – | > 100 µM | – | > 100 µM | – | > 100 µM | – | > 100 µM | – | > 23.6 µM | – | – | > 100 µM | > 100 µM
CCc1cccc(C(C)C)c1NC(=O)C(=O)C(C(=O)C(=O)OC)c1nc2ccccc2[nH]c1=O (configuration not stated) | – | > 100 µM | – | > 100 µM | – | > 100 µM | – | > 100 µM | – | > 100 µM | – | – | – | – | – | > 100 µM | > 100 µM | > 100 µM
Oc1ccc(-c2nc3cc(C(F)(F)F)ccc3n2CC2CCCN3CCCCC23)cc1 (configuration not stated) | – | 29.3 µM | – | 38.8 µM | – | 26 µM | – | 30.3 µM | – | – | – | – | – | 26.3 µM | – | – | 33.5 µM | 27.7 µM
CC1=C(C2=C(C)C(=O)C(=O)c3cc(C)ccc32)c2ccc(C)cc2C(=O)C1=O | – | 3.25 µM | – | 0.328 µM | – | – | – | – | – | 0.31 µM | – | 0.374 µM | – | – | – | 0.381 µM | – | 0.374 µM
CCSc1nc2sc(C)c(C)c2c(=O)n1-c1ccc(C(=O)O)cc1 | – | > 100 µM | – | > 100 µM | – | > 100 µM | – | > 100 µM | – | > 100 µM | – | – | – | – | – | > 100 µM | > 100 µM | > 100 µM
Cc1cc(Cc2cc(C)c(NC(=O)C(=O)C3C(=O)NC(=S)NC3=O)c(C(C)C)c2)cc(C(C)C)c1NC(=O)C(=O)C1C(=O)NC(=S)NC1=O | – | > 100 µM | – | > 100 µM | – | > 100 µM | – | > 100 µM | – | > 100 µM | – | – | – | – | – | > 100 µM | > 100 µM | –
Cn1c(-c2csc(-c3ccc(Cl)cc3)n2)n[nH]c1=S | – | – | – | 56.4 µM | – | 38 µM | – | > 100 µM | – | 44.4 µM | – | 55.8 µM | – | > 100 µM | – | 46.6 µM | > 100 µM | > 100 µM
CN(C)C(=O)CC(C(=O)O)c1c[nH]c2ccccc12 (configuration not stated) | – | > 100 µM | – | > 100 µM | – | > 100 µM | – | > 100 µM | – | > 100 µM | – | – | – | – | – | > 100 µM | > 100 µM | > 100 µM
O=S(=O)(O)CCS | – | > 100 µM | – | > 100 µM | – | > 100 µM | – | > 100 µM | – | > 100 µM | – | – | – | > 100 µM | – | > 100 µM | > 100 µM | > 100 µM
Cc1nc2c(nc1C)-c1c(c3c(n1Cc1ccccc1)C(=O)CCC3)C(=O)C2=O | – | 38 µM | – | 5.32 µM | – | – | – | > 100 µM | – | 28.8 µM | – | 5.84 µM | – | 5.98 µM | – | 50.9 µM | > 100 µM | 24.6 µM
COC1=CC(=O)C(O)=C(C[C@@]2(C)[C@@H]3CCC[C@H](COC(=O)CCCCCNC(=O)OC(C)(C)C)[C@@]3(C)CC[C@@H]2C)C1=O | – | > 10 µM | – | > 10 µM | – | > 10 µM | – | > 10 µM | – | > 10 µM | – | – | – | > 10 µM | – | – | > 10 µM | > 10 µM
CCOC(=O)c1c(C)n(Cc2ccccc2)c2c1cc(O)c1[nH]c3c(c12)CCCC3 | – | – | – | 24.5 µM | – | 15.6 µM | – | 10.9 µM | – | 16.5 µM | – | 24.6 µM | – | 24.4 µM | – | 4.32 µM | 12.6 µM | 15 µM
N#CCCC(CC#N)N1CCN(CCO)CC1 (configuration not stated) | – | > 100 µM | – | – | – | > 100 µM | – | > 100 µM | – | > 100 µM | – | – | – | > 100 µM | – | > 100 µM | > 100 µM | > 100 µM
C/C(Cl)=N\OC(=O)Nc1ccccc1C(F)(F)F | – | > 100 µM | – | > 100 µM | – | > 100 µM | – | 40.3 µM | – | > 100 µM | – | – | – | – | – | – | 47.9 µM | > 100 µM
CC(SC(=S)N1CCCCC1)C(=O)Nc1nnc(-c2ccc(Cl)cc2)o1 (configuration not stated) | – | 88.6 µM | – | – | – | > 100 µM | – | > 100 µM | – | > 100 µM | – | > 100 µM | – | > 100 µM | – | 75.1 µM | – | > 100 µM
CCCCCCOc1ccc(NC2=C(Cl)C(=O)c3cccnc3C2=O)cc1 | – | > 10 µM | – | – | – | 3.62 µM | – | > 10 µM | – | > 10 µM | – | > 10 µM | – | 3.62 µM | – | 3.28 µM | > 10 µM | 2.31 µM
